In BindingDB's records for doi:10.1096/fasebj.10.12.8903510 (Roche Bioscience, 1996):

Molecular target: 5-hydroxytryptamine receptor 4 (Cavia porcellus, UniProt O70528)
Sequence (O70528 whole entry): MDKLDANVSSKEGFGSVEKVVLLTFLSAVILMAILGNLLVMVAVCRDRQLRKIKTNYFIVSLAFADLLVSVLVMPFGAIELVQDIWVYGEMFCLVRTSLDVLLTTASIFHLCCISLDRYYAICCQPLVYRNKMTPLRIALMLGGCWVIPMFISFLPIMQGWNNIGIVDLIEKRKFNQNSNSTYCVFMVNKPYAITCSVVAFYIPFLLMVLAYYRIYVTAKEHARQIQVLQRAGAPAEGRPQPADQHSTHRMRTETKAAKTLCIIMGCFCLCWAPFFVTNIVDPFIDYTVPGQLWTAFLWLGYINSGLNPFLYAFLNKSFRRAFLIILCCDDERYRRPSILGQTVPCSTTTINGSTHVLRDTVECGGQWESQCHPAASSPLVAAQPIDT

Question: How did the Ki turn out when CCCCN1CCC(COC(=O)c2cc(Cl)c(N)c3c2OCCO3)CC1 [CAS_121881] was run?
Answer: The Ki was 0.01 nM.

Question: For COc1cc(COc2cc(N)c(Cl)cc2C(=O)CCCCN2CCCCC2)cc(OC)c1 [RS-67532], which Ki is on record?
Answer: The Ki was 1.99 nM.

Question: How did the Ki turn out when Cn1cc(C(=O)OCC2CCN(CCNS(C)(=O)=O)CC2)c2ccccc21 [GR 113808] was run?
Answer: Its Ki is 0.06 nM.

Question: COc1[nH]c2ccc(F)cc2c1C(=O)OCC1CCN(CCNS(C)(=O)=O)CC1 [GR-125487] was tested. Which Ki did it give?
Answer: Its Ki is 0.03 nM.

Question: With CCN(CC)CCOC(=O)c1cc(Cl)c(N)cc1OC [SDZ-205557] as the compound, how does the Ki read?
Answer: Its Ki is 2.51 nM.

Question: How did the Ki turn out when CCCCN1CCC(CNC(=O)c2c3n(c4ccccc24)CCCO3)CC1 [SB-207266] was run?
Answer: The Ki was 0.39 nM.

Question: With COc1cc(N)c(Cl)cc1C(=O)OCCCN1CCCCC1 as the compound, how does the Ki read?
Answer: Its Ki is 3.98 nM.
